Laboratory results: US6235761A, “Compound, composition and method for treating cancer” (priority 1999, dated 2001)

Key:
[1] = tested on: MX-1 Mammary Tumor Xenograft; assay: Subcutaneously-implanted MX-1 mammary tumor xenograft in mice (Table 1); assay type: in vivo, human tumor in mice; conditions: for Days to 2 Doublings / Non-Specific Deaths / Total / Tumor Free Survival/Total / Tumor Delay (T-C) / Tumor Regression, Complete / Tumor Regression, Partial / Duration of regression, Med: x5, from Day 12; for Tumor Delay (T-C): control 8.0 days; for Tumor Regression, Complete / Tumor Regression, Partial: number of mice
Description: (§1) This Example illustrates the efficacy of penclomedine and 4-demethylpenclomedine in the treatment of cancer. MX-1 mammary tumor xenograft was subcutaneously implanted into mice, and the mice were exposed to the compounds. The testing of the mice was performed following a published procedure. See, e.g., Plowman et al., supra; Geran et al., Cancer Chemother. Rep., Part 2, 1-55 (1972); Developmental Therapeutics Program, Division of Cancer Treatment, NCI, in In Vivo Models 1976-1982, NIH Publication No. 84-2635, Washington D.C., U.S. Govt. Printing Office (1984).
Response of Subcutaneously-Implanted MX-1 Mammary Tumor Xenograft to
^1 Treatment started on Day 12 following tumor implant.
^2 Nonspecific deaths: A treated, tumored animal was presumed to be a
^3 Tumor regression was scored (excluding nonspecific deaths),
^4 Duration of regression: the interval during which a tumor classified
^5 Evaluation size: this value is the tumor mass selected at one or two
^6 Time required for tumor mass doubling: the time required for a tumor
^7 T-C (days): the difference in the median of times postimplant for […]

MX-1 mammary tumor = assay: sc MX-1 mammary tumor in athymic mice (Table 2); assay type: in vivo, human tumor in athymic mice (Ncr-nu)
Description: as §1
(§2) This Example further illustrates the efficacy of penclomedine and 4-demethylpenclomedine in the treatment of cancer. The compounds were tested in vivo on mice by the procedure set forth in Example 2. The results obtained are set forth in Table 2 and confirm that 4-demethyl-penclomedine is active against cancer, particularly mammary, colon, and renal cancer.
(§3) ^a Athymic mice (Ncr-nu) were implanted either intracranially (ic) with
(§4) […] MX-1 mammary tumor cells or subcutaneously (sc) with fragments of
(§5) human tumors (CAKI-, renal; HT29, colon; MX-1, mammary).
(§6) ^b The difference in the median of time poststaging for tumors to
(§7) double in mass: T (treated mice), C (control mice)

[2] = tested on: mammals, especially humans; assay: Neurotoxicity of penclomedine versus 4-demethylpenclomedine; assay type: in vivo, human; conditions: for neurotoxicity versus metabolite levels: administration of penclomedine to patients
Description: It has been observed that 4-demethylpenclomedine was present in clinical samples and continued to be present in the plasma for longer than 24 hours.

MX-1 mammary tumor cells = assay: ic MX-1 mammary tumor in athymic mice, increased life span (Table 2); assay type: in vivo, human tumor in athymic mice (Ncr-nu); conditions: days 1-5
Description: as §1, §2, §3, §4, §5
^c % ILS (increased life span) values are not provided where the mice
were sacrificed when tumors reached 4 g mass.

CAKI-1 renal tumor = assay: sc CAKI-1 renal tumor in athymic mice (Table 2); assay type: in vivo, human tumor in athymic mice (Ncr-nu); conditions: for T-C / Tumor-Free Survival/Total: days 19-23
Description: as §1, §2, §3, §4, §5, §6, §7

[3] = Human plasma levels of penclomedine and demethylpenclomedine during 5 day penclomedine treatment; assay type: in vivo, human patients
Source text: FIG. 1 depicts levels of penclomedine and the demethylpenclomedine metabolite in human plasma, as determined by HPLC chromatographic analysis with uv detection.
FIG. 2 depicts the penclomedine (gray shade) and demethylpenclomedine (white) levels in human plasma on each of five treatment days. Data are from a single patient and are typical. The same ordinate scale is used for both penclomedine and demethylpenclomedine. Pre-infusion levels are depicted without cross hatchings; end of infusion levels are depicted with cross hatchings.
A 1 ml aliquot of tissue homogenate or a […] was acidified with 200 ml of 0.7 M ammonium phosphate pH 2.7, then 3 ml of ethyl acetate was added. This mixture was vortexed, centrifuged and the organic layer was collected. Fifty microliters of DMSO were added, and the ethyl acetate was concentrated to approximately […] with a stream of dry nitrogen. Fifty microliters of acetonitrile were added to this residue, and the resulting solution was analyzed by HPLC. Human plasma was processed identically to mouse plasma with the exception that 500 ml of plasma was extracted. Concentrated cage washings were analyzed by HPLC without further processing.
HPLC Assays: The HPLC system consisted of a Hewlett-Packard Series II 1090 liquid chromatograph with diode array detector (Hewlett-Packard, Palo Alto, Calif.). The column used was an Alltech Adsorbosphere HS C18 5 m 250×4.6 mm column (Alltech Associates, Deerfield, Ill.). The system used a gradient elution consisting of 100% 10 mM ammonium phosphate buffer pH 2.7 progressing to 100% acetonitrile over 25 minutes at 1 ml/min. Detection was performed by means of ultraviolet absorbance at 240 nm as well as by means of radioactivity using a Radiomatic Flo-One/Beta A140 radioactive flow detector (Packard Instrument Co., Downers Grove, Ill.) equipped with a […] and Flo-Scint VI scintillation cocktail at a 2:1 ratio.
This example illustrates the distribution of penclomedine and 4-demethylpenclomedine in human plasma during a 5 day treatment schedule using penclomedine.
Plasma levels of the metabolite and penclomedine were determined in 9 patients during the 5 day treatment schedule. […] Demethylpenclomedine plasma levels were equal to penclomedine plasma levels by 10 min after end of the infusion and rose to 9.5 μM by 7 hrs. […] The ratio of demethylpenclomedine to penclomedine in the post-infusion plasma sample obtained on day 1 of treatment was approximately 1:1; however, impressive accumulation of demethylpenclomedine was noted during the five day treatment schedule and by the final day this ratio was often greater than 10. […] A summary of post-infusion demethylpenclomedine plasma levels determined on each day of treatment for 9 patients is set forth in Table 4.

[4] = 135 mg/kg/dose oral, highest dosage level, days 13-17
[5] = 135 mg/kg/dose oral, highest dosage level
[6] = 1 hr i.v. infusion penclomedine 315 mg/m^2
[7] = human plasma, single patient, FIG. 1
[8] = repeated administration of penclomedine
[9] = five day samples, same patient, FIG. 2

COc1nc(C(Cl)(Cl)Cl)c(Cl)c(O)c1Cl [4-Demethylpenclomedine, 3,5-dichloro-2-methoxy-4-hydroxy-6-(trichloromethyl)-pyridine]
Days to 2 Doublings ([1]; 60 mg/kg IP): 23.4 days
Non-Specific Deaths / Total ([1]; 60 mg/kg IP): 0/5
Tumor Free Survival/Total ([1]; 60 mg/kg IP): 2/5
Tumor Delay (T-C) ([1]; 60 mg/kg IP): 15.4 days
Tumor Regression, Complete ([1]; 60 mg/kg IP): 2
Tumor Regression, Partial ([1]; 60 mg/kg IP): 0
Days to 2 Doublings ([1]; 90 mg/kg IP): > 49.0 days
Duration of regression, Med ([1]; 90 mg/kg IP): 32.5 days
Non-Specific Deaths / Total ([1]; 90 mg/kg IP): 0/5
Tumor Free Survival/Total ([1]; 90 mg/kg IP): 3/5
Tumor Delay (T-C) ([1]; 90 mg/kg IP): > 41.0 days
Tumor Regression, Complete ([1]; 90 mg/kg IP): 5
Tumor Regression, Partial ([1]; 90 mg/kg IP): 0
Days to 2 Doublings ([1]; 135 mg/kg IP): > 49.0 days
Duration of regression, Med ([1]; 135 mg/kg IP): 35.7 days
Non-Specific Deaths / Total ([1]; 135 mg/kg IP): 1/5
Tumor Free Survival/Total ([1]; 135 mg/kg IP): 3/5
Tumor Delay (T-C) ([1]; 135 mg/kg IP): > 41.0 days
Tumor Regression, Complete ([1]; 135 mg/kg IP): 4
Tumor Regression, Partial ([1]; 135 mg/kg IP): 0
tumor growth delay, comparison of the two compounds ([1]; Table 1): identical tumor growth delay
T-C (MX-1 mammary tumor; 90 mg/kg/dose IP, days 12-16): > 41.0 days
Tumor-Free Survival/Total (MX-1 mammary tumor; 90 mg/kg/dose IP, days 12-16): 3/5
T-C (MX-1 mammary tumor; 90 mg/kg/dose IP, days 15-19): > 37.2 days
Tumor-Free Survival/Total (MX-1 mammary tumor; 90 mg/kg/dose IP, days 15-19): 3/5
T-C (MX-1 mammary tumor; [4]): 36.7 days
Tumor-Free Survival/Total (MX-1 mammary tumor; [4]): 2/5
T-C, comparison of the two compounds (MX-1 mammary tumor; Table 2): nearly identical T-C
activity against MX-1 tumors (T-C) (MX-1 mammary tumor; Table 2): active against MX-1, colon, and renal tumors
neurotoxicity versus metabolite levels [2]: the levels of this metabolite increased as toxicity due to penclomedine resolved
Median % ILS (dying mice only) (MX-1 mammary tumor cells; 90 mg/kg/dose IP): +60%
Tumor-Free Survival/Total (MX-1 mammary tumor cells; 90 mg/kg/dose IP): 0/5
Median % ILS (dying mice only) (MX-1 mammary tumor cells; [5]): +66%
Tumor-Free Survival/Total (MX-1 mammary tumor cells; [5]): 1/5
T-C (CAKI-1 renal tumor; 90 mg/kg/dose IP): 14.5 days
Tumor-Free Survival/Total (CAKI-1 renal tumor; 90 mg/kg/dose IP): 0/5
activity against renal tumors (T-C) (CAKI-1 renal tumor; Table 2): active against MX-1, colon, and renal tumors
accumulation over the 5 day treatment ([3]; 9 patients): accumulation of metabolite was observed in all 9 patients
time after end of infusion at which plasma levels equal those of penclomedine [3, 6]: ≤ 10 min
time present in plasma ([3]; clinical samples): > 24 h
ratio of demethylpenclomedine to penclomedine in plasma ([3]; final day of five day schedule, often): greater than 10
persistence in plasma ([3]; five day treatment schedule): persisted in the plasma for an extended period of time
plasma level time course [3, 7]: continues to increase with time
drug exposure relative to parent compound [3, 8]: several hundred times that of the parent compound
plasma level relative to peak plasma level of penclomedine [3, 8]: greater than ten times the peak plasma level of penclomedine

COc1nc(C(Cl)(Cl)Cl)c(Cl)c(OC)c1Cl [Penclomedine, 3,5-dichloro-2,4-dimethoxy-6-(trichloromethyl)pyridine]
Days to 2 Doublings ([1]; 60 mg/kg IP): > 49.0 days
Non-Specific Deaths / Total ([1]; 60 mg/kg IP): 0/5
Tumor Free Survival/Total ([1]; 60 mg/kg IP): 4/5
Tumor Delay (T-C) ([1]; 60 mg/kg IP): > 41.0 days
Tumor Regression, Complete ([1]; 60 mg/kg IP): 5
Tumor Regression, Partial ([1]; 60 mg/kg IP): 0
Days to 2 Doublings ([1]; 90 mg/kg IP): > 49.0 days
Non-Specific Deaths / Total ([1]; 90 mg/kg IP): 0/5
Tumor Free Survival/Total ([1]; 90 mg/kg IP): 5/5
Tumor Delay (T-C) ([1]; 90 mg/kg IP): > 41.0 days
Tumor Regression, Complete ([1]; 90 mg/kg IP): 5
Tumor Regression, Partial ([1]; 90 mg/kg IP): 0
Days to 2 Doublings ([1]; 135 mg/kg IP): > 49.0 days
Non-Specific Deaths / Total ([1]; 135 mg/kg IP): 0/5
Tumor Free Survival/Total ([1]; 135 mg/kg IP): 5/5
Tumor Delay (T-C) ([1]; 135 mg/kg IP): > 41.0 days
Tumor Regression, Complete ([1]; 135 mg/kg IP): 5
Tumor Regression, Partial ([1]; 135 mg/kg IP): 0
survival rate, compared with 4-demethylpenclomedine ([1]; Table 1): slightly higher survival rate
tumor growth delay, comparison of the two compounds ([1]; Table 1): identical tumor growth delay
T-C (MX-1 mammary tumor; 135 mg/kg/dose IP, days 12-16): > 41.0 days
Tumor-Free Survival/Total (MX-1 mammary tumor; 135 mg/kg/dose IP, days 12-16): 5/5
T-C (MX-1 mammary tumor; 135 mg/kg/dose IP, days 13-17): > 38.5 days
Tumor-Free Survival/Total (MX-1 mammary tumor; 135 mg/kg/dose IP, days 13-17): 5/5
T-C (MX-1 mammary tumor; 135 mg/kg/dose IP, days 15-19): > 37.2 days
Tumor-Free Survival/Total (MX-1 mammary tumor; 135 mg/kg/dose IP, days 15-19): 5/5
T-C, comparison of the two compounds (MX-1 mammary tumor; Table 2): nearly identical T-C
survival rate, compared with 4-demethylpenclomedine (MX-1 mammary tumor; Table 2): slightly higher survival rate
neurotoxicity versus metabolite levels [2]: neurotoxicity did not increase while levels of this metabolite increased to several times the plasma levels of the parent drug
neurotoxicity to mammals, especially humans ([2]; in vivo): neurotoxic to mammals, especially to humans
Median % ILS (dying mice only) (MX-1 mammary tumor cells; 90 mg/kg/dose IP): +88%
Tumor-Free Survival/Total (MX-1 mammary tumor cells; 90 mg/kg/dose IP): 0/5
Median % ILS (dying mice only) (MX-1 mammary tumor cells; 90 mg/kg/dose oral): +72%
Tumor-Free Survival/Total (MX-1 mammary tumor cells; 90 mg/kg/dose oral): 0/5
T-C (CAKI-1 renal tumor; 135 mg/kg/dose IP): 15.3 days
Tumor-Free Survival/Total (CAKI-1 renal tumor; 135 mg/kg/dose IP): 0/5
decline of plasma levels after infusion [3, 6]: rapidly declined in an apparently biexponential fashion
post-infusion plasma level [3, 9]: always less than μM
pre-infusion plasma level [3, 9]: barely detectable
plasma level time course [3, 7]: rapidly cleared from plasma
α of biexponential decay [3, 7]: 3.88 h⁻¹
k el ([3]; in vivo, iv, human plasma, single patient, FIG. 1, read-out: β of biexponential decay (converted)): 0.000127 s⁻¹
